Values after ≈ are worked out from the molar mass of the structure shown. Where two headings read alike, the source gives them in different places.
Assays:
[1] = Equilibrium saturated solubility in HFA-227 (comparative); format: physicochemical; details: organic solvent or mixture, thermodynamic from solid, room temperature
Protocol: (§1) In this Example, the equilibrium saturated solubility of CBD or Δ-9-THC individually in HFA-227 and HFA-134a was measured.
(§2) […]. Each solution was shaken at room temperature for 4 days, after which each solution was filtered to remove undissolved CBD and/or Δ-9-THC, and the concentration of each cannabinoid was measured. The equilibrium saturated solubility of each cannabinoid in each propellant was measured at room temperature.

[2] = Equilibrium saturated solubility in HFA-134a (comparative); format: physicochemical; details: room temperature
Protocol: as §1, §2

[3] = for solubility at 14 days: organic solvent or mixture; for visual solubility: HFA-152a, after 14 days, ambient conditions or 5° C.
[4] = Equilibrium saturated solubility in HFA-152a without cosolvent; format: physicochemical; details: organic solvent or mixture, thermodynamic from solid, no cosolvent
Protocol: In this Example, the equilibrium saturated solubility of Δ-9-THC and CBD individually in HFA-152a. was measured.
[…]. Each solution was covered with aluminum foil to prevent UV light from reaching the drug. A first set of solutions was then shaken at room temperature for 4 days. A second set of solutions was stored at 5° C. and manually shaken several times per day. After 4 days, each solution was filtered to remove undissolved CBD and/or Δ-9-THC, and the concentration of each cannabinoid was measured. Formulations were assessed for solubility at room temperature and at 5° C.

SMILES | solubility at 4 days [1] [mg/mL] | solubility at 4 days ([2]; organic solvent or mixture, thermodynamic from solid) [mg/mL] | solubility at 14 days ([3]; HFA-152a with 4%, […]) [mg/mL] | visual solubility ([3]; 4% ethanol by weight) | visual solubility ([3]; 5% ethanol by weight) | visual solubility ([3]; 6% ethanol by weight) | solubility at 4 days ([4]; 5° C.) [mg/mL] | solubility at 4 days ([4]; room temperature) [mg/mL] | equilibrium saturated solubility in HFA-134a ([2]; 4 days) [mg/mL] | solubility at 14 days ([3]; HFA-152a with 1-3% ethanol by weight) [mg/mL] | visual solubility ([3]; 1% ethanol by weight) | visual solubility ([3]; 2% ethanol by weight) | visual solubility ([3]; 3% ethanol by weight)
CCCCCc1cc(O)c2c(c1)OC(C)(C)[C@@H]1CCC(C)=C[C@@H]21 [Δ-9-THC, (6aR,10aR)-6,6,9-trimethyl-3-pentyl-6a,7,8,10a-tetrahydro-6H-benzo[c]chromen-1-ol] | 1.5 (≈ 4.77 mM) | 2.3 (≈ 7.31 mM) | ≥ 15.9 | Soluble | Soluble | Soluble | ≥ 21.8 | ≥ 24.7 | – | – | – | – | –
C=C(C)[C@@H]1CCC(C)=C[C@H]1c1c(O)cc(CCCCC)cc1O [CBD, 2-[(1R,6R)-6-Isopropenyl-3-methylcyclohex-2-en-1-yl]-5-pentylbenzene-1,3-diol] | 1.8 (≈ 5.72 mM) | – | – | – | – | – | ≥ 16.4 | ≥ 15.7 | 2.5 | ≥ 15.9 | Soluble | soluble | soluble

Reference: US20260241119A1, “METERED DOSE INHALERS AND SOLUTIONS INCLUDING CANNABINOIDS IN HFA-152A” (Kindeva Drug Delivery L.P., priority 2023, published 2026)
